Assay results published in PMC9034178, “Self-assemblies of pluronic micelles in partitioning of anticancer drugs and effectiveness of this system towards target protein” (RSC Advances, 2021).

Target: T1, bovine serum albumin (BSA) (Bos taurus, UniProt P02769)
T1 construct: gene ALB
Assay: tryptophan fluorescence quenching (ex […] nm), double-log plot
Assay type: binding
Conditions: no pluronic; pH 7.4, 298.15 K

T1 sequence (P02769 25-607): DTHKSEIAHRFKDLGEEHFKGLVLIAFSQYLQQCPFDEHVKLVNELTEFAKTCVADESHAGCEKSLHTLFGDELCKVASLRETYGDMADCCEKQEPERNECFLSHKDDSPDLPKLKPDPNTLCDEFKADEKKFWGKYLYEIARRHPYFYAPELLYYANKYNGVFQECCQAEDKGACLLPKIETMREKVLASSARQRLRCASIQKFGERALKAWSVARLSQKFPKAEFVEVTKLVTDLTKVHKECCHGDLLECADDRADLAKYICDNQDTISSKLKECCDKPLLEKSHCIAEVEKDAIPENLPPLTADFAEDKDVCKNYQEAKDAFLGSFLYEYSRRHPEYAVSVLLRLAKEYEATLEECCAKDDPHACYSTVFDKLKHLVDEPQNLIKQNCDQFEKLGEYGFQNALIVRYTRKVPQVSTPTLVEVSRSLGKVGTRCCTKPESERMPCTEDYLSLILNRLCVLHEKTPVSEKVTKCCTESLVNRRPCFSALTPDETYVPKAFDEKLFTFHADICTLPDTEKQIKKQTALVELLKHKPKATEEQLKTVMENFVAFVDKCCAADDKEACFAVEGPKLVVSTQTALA

K a (M^-1) | Compound
(1.1 ± 0.1) × 10^2 M^-1 | Nc1ccn([C@@H]2O[C@H](CO)[C@@H](O)[C@@H]2O)c(=O)n1 [cytarabine]
(2.4 ± 0.2) × 10^2 M^-1 | Nc1ccn([C@@H]2O[C@H](CO)[C@@H](O)C2(F)F)c(=O)n1 [gemcitabine]
(2.3 ± 0.4) × 10^2 M^-1 | NC(=O)NO [hydroxyurea]
